Data on 54 molecules can be found in patent US8841301B2, “Selective NR2B antagonists” (Bristol-Myers Squibb Company, priority 2011, dated 2014).

A value given as a limit tells only on which side of the number the result lay.

Sequence of hNR2B (Q13224 27-1484, other chains not shown): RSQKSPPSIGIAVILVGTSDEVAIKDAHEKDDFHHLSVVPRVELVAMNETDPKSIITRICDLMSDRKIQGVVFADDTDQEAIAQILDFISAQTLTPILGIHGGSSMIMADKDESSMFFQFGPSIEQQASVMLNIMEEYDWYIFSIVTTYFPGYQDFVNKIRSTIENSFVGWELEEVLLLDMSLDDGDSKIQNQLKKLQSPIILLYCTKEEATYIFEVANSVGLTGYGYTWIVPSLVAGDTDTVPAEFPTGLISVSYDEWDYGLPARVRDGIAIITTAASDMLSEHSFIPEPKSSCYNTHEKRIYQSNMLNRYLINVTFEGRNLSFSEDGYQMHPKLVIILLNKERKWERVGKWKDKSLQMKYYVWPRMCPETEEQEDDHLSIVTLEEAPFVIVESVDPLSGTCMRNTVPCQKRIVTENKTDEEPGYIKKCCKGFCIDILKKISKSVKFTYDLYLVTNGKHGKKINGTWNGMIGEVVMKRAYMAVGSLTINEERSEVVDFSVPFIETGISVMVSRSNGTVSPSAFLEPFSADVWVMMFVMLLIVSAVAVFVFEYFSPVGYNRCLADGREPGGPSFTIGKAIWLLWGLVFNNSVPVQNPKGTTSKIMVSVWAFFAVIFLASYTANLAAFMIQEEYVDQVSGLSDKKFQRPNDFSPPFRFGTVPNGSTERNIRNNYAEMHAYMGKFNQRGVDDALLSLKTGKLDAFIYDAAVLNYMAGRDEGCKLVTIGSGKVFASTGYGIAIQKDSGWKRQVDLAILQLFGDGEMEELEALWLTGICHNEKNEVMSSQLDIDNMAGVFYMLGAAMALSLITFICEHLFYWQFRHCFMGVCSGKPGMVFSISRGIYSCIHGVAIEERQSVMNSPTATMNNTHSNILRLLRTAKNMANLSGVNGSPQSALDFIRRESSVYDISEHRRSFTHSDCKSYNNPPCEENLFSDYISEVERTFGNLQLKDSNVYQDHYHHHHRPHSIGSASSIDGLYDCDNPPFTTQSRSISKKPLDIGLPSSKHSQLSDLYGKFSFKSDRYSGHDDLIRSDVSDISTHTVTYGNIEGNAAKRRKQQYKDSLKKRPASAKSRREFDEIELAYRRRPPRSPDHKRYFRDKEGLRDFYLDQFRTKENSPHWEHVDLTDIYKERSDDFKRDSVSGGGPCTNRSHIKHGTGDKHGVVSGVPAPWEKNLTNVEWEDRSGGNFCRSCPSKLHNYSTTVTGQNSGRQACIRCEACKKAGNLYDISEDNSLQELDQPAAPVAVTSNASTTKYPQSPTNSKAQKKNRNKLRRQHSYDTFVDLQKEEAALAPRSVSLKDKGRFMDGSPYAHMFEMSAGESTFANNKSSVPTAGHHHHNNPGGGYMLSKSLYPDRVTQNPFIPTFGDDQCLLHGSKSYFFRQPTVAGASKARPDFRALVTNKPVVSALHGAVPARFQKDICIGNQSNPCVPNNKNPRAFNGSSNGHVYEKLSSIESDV

The first experiment has as its target hNR2B (Homo sapiens, UniProt Q05586+Q13224). Briefly: Electrophysiology NMDA receptor experiments: two electrode voltage-clamp in Xenopus laevis oocytes expressing GluN1/GluN2 subunits. To be noted: oocytes voltage clamped at −40 mV; 50 μM glutamate, 30 μM glycine; read-out: Rating (hNR2B IC50). In kind it is cell-based. The method, then:
Electrophysiology NMDA Receptor Experiments.
Stage V and VI oocytes were surgically removed from the ovaries of large, well-fed and healthy Xenopus laevis anesthetized with 3-amino-benzoic acid ethyl ester (3 gm/l). Clusters of isolated oocytes were incubated with 292 U/ml Worthington (Freehold, N.J.) type IV collagenase or 1.3 mg/ml collagenase (Life Technologies, Gaithersburg, Md.; 17018-029) for 2 hr in Ca^2+-free solution comprised of (in mM) 115 NaCl, 2.5 KCl, and 10 HEPES, pH 7.5, with slow agitation to remove the follicular cell layer. Oocytes were then washed in the same solution supplemented with 1.8 mM CaCl2 and maintained in Barth's solution comprised of (in mM): 88 NaCl, 1 KCl, 2.4 NaHCO3, 10 HEPES, 0.82 MgSO4, 0.33 Ca(NO3)2, and 0.91 CaCl2 and supplemented with 100 μg/ml gentamycin, 10 μg/ml streptomycin, and 10 μg/ml penicillin. Oocytes were manually defolliculated and injected within 24 hrs of isolation with 3-5 ng of human GluN1 subunit cRNA and 7-10 ng of human GluN2 cRNA subunit in a 50 nl volume, and incubated in Barth's solution at 18° C. for 2-7 d. Glass injection pipettes had tip sizes ranging from 10-20 microns, and were backfilled with mineral oil. cRNA was synthesized from linearized template cDNA for rat glutamate receptor subunits according to manufacturer specifications (Ambion).
Two electrode voltage-clamp recordings were made 2-7 days post-injection. Oocytes were placed in a dual-track plexiglass recording chamber with a single perfusion line that splits in a Y-configuration to perfuse two oocytes. Dual recordings were made at room temperature (23° C.) using two Warner OC725B two-electrode voltage clamp amplifiers, arranged as recommended by the manufacturer. Glass microelectrodes (1-10 Megaohms) were filled with 300 mM KCl (voltage electrode) or 3 M KCl (current electrode). The bath clamps communicated across silver chloride wires placed into each side of the recording chamber, both of which were assumed to be at a reference potential of 0 mV. Oocytes were perfused with a solution comprised of (in mM) 90 NaCl, 1 KCl, 10 HEPES, […] and 0.5 BaCl2; pH 7.4, adjusted by addition of NaOH. Oocytes were recorded under voltage clamp at −40 mV. Final concentrations for glutamate and glycine were 50 μM and 30 μM, respectively. Concentration-response curves for experimental compounds were obtained by applying in successive fashion maximal glutamate/glycine, followed by glutamate/glycine plus variable concentrations of experimental compounds. Dose response curves consisting of four to eight concentrations were obtained in this manner. The baseline leak current at −40 mV was measured before and after recording, and the full recording linearly corrected for any change in leak current. The level of inhibition by applied experimental compounds was expressed as a percent of the initial glutamate response, and averaged together across oocytes from multiple experiments. Results were pooled, and the average percent responses at antagonist concentrations were fit by the equation, Percent Response=(100−minimum)/(1+([conc]/IC50)^nH)+minimum where minimum is the residual percent response in saturating concentration of the experimental compounds, IC50 is the concentration of antagonist that causes half of the achievable inhibition, and nH is a slope factor describing steepness of the inhibition curve. […]
For NMDA receptor subtype selectivity experiments human GluN1/GluN2A, GluN1/GluN2C, and GluN1/GluN2D cRNAs were expressed in Xenopus laevis as described above. Here, 10 μM concentrations of the antagonist was perfused with 50 μM glutamate and 30 μM glycine onto the oocyte for two min and the remaining current in the presence of the antagonist was compared to the maximal current obtained with 50 μM glutamate and 30 μM glycine alone (defined as 100%). When IC50 determinations were made against other NMDA receptor subtypes the protocol as described above was followed. […]
A word on the IC50: it is the concentration at which inhibition is half-maximal. As to `Nc1nc2ccc(OCc3cnc(Nc4ccc(OC(F)F)cc4)nc3)cc2s1` [Example 65], the concentration for half-maximal inhibition (IC50) was below 200 nM.
For the molecule `O=c1ccc2cc(OCc3cnc(Nc4ccc(F)c(F)c4)nc3)ccc2[nH]1` [Example 31], the IC50 was below 200 nM.
For `FC(F)Oc1ccc(Nc2ncc(COc3ccc4[nH]ncc4c3)cn2)cc1Cl` [Example 75], the IC50 was below 200 nM.
With `CCc1ccc(Nc2ncc(CCc3ccc4[nH]c(=O)ccc4c3)cn2)cc1` [Example 131], the 50% inhibitory concentration (IC50) is below 200 nM.
On to `O=c1ccc2cc(OCc3cnc(Nc4ccc(OC(F)F)c(Cl)c4)nc3)c(F)cc2[nH]1` [Example 88], for which the IC50 was below 200 nM.
The same measure, in the same setting: then `O=c1ccc2cc(CCc3cnc(Nc4ccc(OC(F)F)cc4)nc3)ccc2[nH]1` [Example 109], with below 200 nM; and `FC(F)Oc1ccc(Nc2ncc(COc3ccc(Nc4nccs4)cc3)cn2)cc1Cl` [Example 92], with below 200 nM.
On to `O=c1ccc2cc(OCc3cnc(NCc4ccc(F)c(F)c4)nc3)ccc2[nH]1` [Example 26], for which the IC50 was below 200 nM.
Still for that read-out and setting: the figure for `CC(C)(C)c1ccc(Nc2ncc(COc3ccc4[nH]c(=O)ccc4c3)cn2)cc1` [Example 47] is below 200 nM.
Take `O=c1ccc2cc(OCc3cnc(Nc4ccc(F)cc4)nc3)ccc2[nH]1` [Example 30]: the concentration for half-maximal inhibition (IC50) is below 200 nM.
In the case of `COc1ccc(Nc2ncc(COc3ccc4[nH]c(=O)ccc4c3)cn2)cc1Cl` [Example 36], the IC50 is below 200 nM.
Take `Oc1ccc(CCc2cnc(Nc3ccc(OC(F)F)cc3)nc2)cc1` [Example 150]: the IC50 is below 200 nM.
The same measure, in the same setting: then `O=c1ccc2cc(OCc3ccc(NCc4cccc(Cl)c4)nc3)ccc2[nH]1` [Example 8], with 1000 to 10000 nM; and `Cc1nc(Nc2ccc(OC(F)F)cc2)ncc1COc1ccc2[nH]c(=O)ccc2c1` [Example 52], with below 200 nM.
On to `O=c1ccc2cc(OCc3ccc(NCc4ccc(F)c(F)c4)nc3)ccc2[nH]1` [Example 5], for which the IC50 was in the range of 201 to 1000 nM.
Same read-out and setting: the figure for `CCc1ccc(Nc2ncc(CCc3ccc4[nH]c(=O)ccc4c3)cn2)cc1F` [Example 126] is below 200 nM; for `FC(F)Oc1ccc(Nc2ncc(COc3ccc4[nH]ncc4c3)cn2)cc1` [Example 57] it is below 200 nM; for `FC(F)Oc1ccc(Nc2ncc(COc3ccc4[nH]cnc4c3)cn2)cc1` [Example 60] it is below 200 nM.
For the molecule `CCc1ccc(Nc2ncc(COc3ccc4[nH]c(=O)ccc4c3)cn2)cc1F` [Example 39], the IC50 is below 200 nM.
On to `Cc1ccc(Nc2ncc(COc3ccc4[nH]c(=O)ccc4c3)cn2)cc1F` [Example 28], for which the IC50 was below 200 nM.
Still for that read-out and setting: the figure for `O=c1[nH]c2ccc(OCc3cnc(Nc4ccc(OC(F)(F)F)cc4)nc3)cc2s1` [Example 71] is below 200 nM; for `Oc1ncc(OCc2cnc(Nc3ccc(OC(F)F)cc3)nc2)cn1` [Example 70] it is below 200 nM; for `Cc1cc(Nc2ncc(COc3ccc4c(c3)COC(=O)N4)cn2)ccc1OC(F)F` [Example 82] it is below 200 nM.
Still for that read-out and setting: the figure for `O=c1ccc2cc(OCc3cnc(Nc4ccc(OC(F)(F)F)cc4)nc3)ccc2[nH]1` [Example 23] is below 200 nM; for `O=c1ccc2cc(OCc3cnc(Nc4ccc(F)c(Cl)c4)nc3)ccc2[nH]1` [Example 32] it is 201 to 1000 nM.
Take `O=c1ccc2cc(OCc3cncc(NCc4ccc(Cl)c(Cl)c4)n3)ccc2[nH]1` [Example 101]: the half-inhibitory concentration (IC50) was in the range of 1000 to 10000 nM.
As to `CCc1ccc(Nc2ncc(CCc3cnc4[nH]ncc4c3)cn2)cc1F` [Example 151], the IC50 was in the range of 201 to 1000 nM.
Same read-out and setting: then `O=c1ccc2cc(CCc3cnc(Nc4ccc(OC(F)(F)F)cc4)nc3)ccc2[nH]1` [Example 108], with below 200 nM; and `Fc1cc(Nc2ncc(COc3ccc(Nc4nccs4)cc3)cn2)ccc1OC(F)F` [Example 91], with below 200 nM; and `FC(F)Oc1ccc(Nc2ncc(COc3cnc4[nH]ncc4c3)cn2)cc1` [Example 79], with below 200 nM.
Consider `O=C1Nc2ccc(OCc3cnc(Nc4ccc(OC(F)F)cc4)nc3)cc2CO1` [Example 58], for which the IC50 was below 200 nM.
On to `O=c1ccc2cc(OCc3cnc(Nc4ccc(OC(F)F)c(Cl)c4)nc3)ccc2[nH]1` [Example 35], for which the half-maximal inhibitory concentration (IC50) is below 200 nM.
For the molecule `CC(C)c1ccc(Nc2ncc(COc3ccc4[nH]c(=O)ccc4c3)cn2)cc1` [Example 44], the IC50 is below 200 nM.
`Cc1cc(Nc2ncc(COc3ccc4[nH]ncc4c3)cn2)ccc1OC(F)F` [Example 76]: the half-maximal inhibitory concentration (IC50) is below 200 nM.
As for `Cc1ccc(Nc2ncc(COc3ccc4c(c3)COC(=O)N4)cn2)cc1F` [Example 83], the IC50 was below 200 nM.
With `CC1(C)OC(=O)Nc2ccc(CCc3cnc(Nc4ccc(OC(F)F)c(Cl)c4)nc3)cc21` [Example 140], the IC50 was 201 to 1000 nM.
Consider `O=c1ccc2cc(OCc3cnc(NCc4ccc(Cl)cc4)nc3)ccc2[nH]1` [Example 19], for which the IC50 is below 200 nM.
On to `O=c1ccc2cc(OCc3cc(Nc4ccc(Cl)cc4)ncn3)ccc2[nH]1` [Example 96], for which the IC50 was below 200 nM.
In the case of `COc1ccc(Nc2ncc(COc3ccc4[nH]c(=O)ccc4c3)cn2)cn1` [Example 48], the half-maximal inhibitory concentration (IC50) was below 200 nM.
With `Cc1cc(OCc2cnc(Nc3ccc(OC(F)(F)F)cc3)nc2)cc2cn[nH]c12` [Example 67], the IC50 is below 200 nM.
`O=c1ccc2cc(OCc3cccc(Nc4ccc(Cl)cc4)n3)ccc2[nH]1` [Example 11]: the IC50 was below 200 nM.
For the molecule `Cc1cc(Nc2ncc(COc3ccc4c(c3)CC(=O)N4)cn2)ccc1OC(F)F` [Example 86], the IC50 is below 200 nM.
For the molecule `O=c1ccc2cc(OCc3cncc(Nc4ccc(Cl)cc4)n3)ccc2[nH]1` [Example 99], the half-inhibitory concentration (IC50) lay in the range of 1000 to 10000 nM.
For `O=c1ccc2cc(CCc3cnc(Nc4ccc(OC(F)F)cc4)nc3)cnc2[nH]1` [Example 155], the IC50 was below 200 nM.
On to `Fc1cc(Nc2ncc(COc3ccc4[nH]ncc4c3Cl)cn2)ccc1OC(F)F` [Example 72], for which the IC50 was below 200 nM.
On to `O=c1ccc2cc(OCc3ccnc(NCc4ccc(Cl)cc4)n3)ccc2[nH]1` [Example 94], for which the IC50 was in the range of 1000 to 10000 nM.
In the case of `O=C1Nc2ccc(CCc3cnc(Nc4ccc(OC(F)F)cc4)nc3)cc2CO1` [Example 139], the IC50 is below 200 nM.
On the same count and under the same terms, then `O=c1ccc2cc(OCc3cnc(Nc4ccc(Cl)cc4)nc3C(F)(F)F)ccc2[nH]1` [Example 54], with below 200 nM; and `FC(F)Oc1ccc(Nc2ncc(CCc3ccc4[nH]ncc4c3)cn2)cc1` [Example 112], with 201 to 1000 nM; and `O=c1ccc2cc(CCc3cnc(Nc4ccc(OC(F)F)c(F)c4)nc3)ccc2[nH]1` [Example 129], with below 200 nM.

The same experiment, now with this note: oocytes voltage clamped at −40 mV; 50 μM glutamate, 30 μM glycine; read-out: hNR2B IC50.
`O=c1ccc2cc(OCc3cnc(NCc4ccc(F)c(F)c4)nc3)ccc2[nH]1` [Example 26]: the IC50 amounted to 139 nM.
In the case of `Cc1ccc(Nc2ncc(COc3ccc4[nH]c(=O)ccc4c3)cn2)cc1F` [Example 28], the IC50 was 101 nM.
As to `O=c1[nH]c2ccc(OCc3cnc(Nc4ccc(OC(F)F)cc4)nc3)cc2o1` [Example 16, 6-((2-((4-(difluoromethoxy)phenyl)amino)pyrimidin-5-yl)methoxy)benzo[d]oxazol-2(3H)-one], the IC50 came out at 14 nM.
As for `FC(F)Oc1ccc(Nc2ncc(CCc3ccc4[nH]ncc4c3)cn2)cc1Cl` [Example 104, 5-(2-(1H-indazol-5-yl)ethyl)-N-(3-chloro-4-(difluoromethoxy)phenyl)pyrimidin-2-amine], the IC50 was 183 nM.
As to `Oc1ccc(CCc2cnc(Nc3ccc(OC(F)F)cc3)nc2)cc1` [Example 107, 4-(2-(2-((4-(difluoromethoxy)phenyl)amino)pyrimidin-5-yl)ethyl)phenol], the IC50 was found to be 35 nM.
In the case of `FC(F)Oc1ccc(Nc2ccc(CCc3ccc4[nH]ncc4c3)nn2)cc1` [Example 156, 6-(2-(1H-indazol-5-yl)ethyl)-N-(4-(difluoromethoxy)phenyl)pyridazin-3-amine], the IC50 stood at 135 nM.
